According to US8546608B2, “Proteasome inhibitors and methods of using the same” (Cephalon, Inc., priority 2003, dated 2013):

Legend:
[1] = molecular target: T1, 20S Human Erythrocyte Proteasome (HEP) (Homo sapiens, UniProt P20618+P28074); assay: Chymotrypsin-like activity of 20S Human Erythrocyte Proteasome (HEP), IC50 determination; format: biochemical; details: assay of Example C, inhibition of HEP
T1 construct: 20S Human Erythrocyte Proteasome (HEP), purchased from Immatics Biotechnologies Inc; purchased Immatics Biotechnologies Inc., Tübingen, Germany; host or cells: human erythrocytes (natural source)
Protocol: Assay for Chymotrypsin-like Activity of 20S Human Erythrocyte Proteasome (HEP)
Proteasome chymotrypsin-like activity of compounds of the invention was assayed according to the following procedure.
In 96-well microtiter plates, 20S Human Erythrocyte Proteasome (HEP), purchased from Immatics Biotechnologies Inc., Tübingen, Germany was plated at 0.2 μg/mL (about 0.6 nM catalytic sites) in 0.04% SDS 20 mM Tris buffer. A fluorimetric substrate Suc-LLVY-AMC (succinyl-Leu-Leu-Val-Tyr-7-amido-4-methylcoumarin), purchased from Sigma Inc., St. Louis, Mo., USA was added to a final concentration of 100 μM from a stock solution of 10 mM in dimethylsulfoxide. Reaction volumes were 100 μl per well. […] Proteasome activity was determined under conditions in which substrate hydrolysis increased linearly with time and the change in fluorescence signal was proportional to the concentration of free AMC.
Determination of IC50 Values for HEP and α-Chymotrypsin Inhibitors
(§1) Inhibition of the chymotrypsin-like activity of HEP and of bovine α-chymotrypsin was determined by incubating the enzyme with various concentrations of putative inhibitors for 15 minutes at 37° C. (or room temperature for α-chymotrypsin) prior to the addition of substrate. Each experimental condition was evaluated in triplicate, and replicate experiments were performed for the inhibitors described herein.

[2] = molecular target: T2, proteasome in Molt-4 cells (human leukemia) (Homo sapiens, UniProt P20618+P28074); format: cell-based; details: assay of Example E, inhibition of MOLT4; read-out: MOLT4 (EC50)
T2 sequence (P28074 60-263): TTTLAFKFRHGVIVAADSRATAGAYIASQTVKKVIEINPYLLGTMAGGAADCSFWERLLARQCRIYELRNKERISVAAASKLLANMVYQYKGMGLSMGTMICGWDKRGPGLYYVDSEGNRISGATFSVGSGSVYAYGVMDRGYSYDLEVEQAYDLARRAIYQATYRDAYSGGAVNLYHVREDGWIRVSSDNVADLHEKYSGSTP
T2 sequence (P20618 29-241): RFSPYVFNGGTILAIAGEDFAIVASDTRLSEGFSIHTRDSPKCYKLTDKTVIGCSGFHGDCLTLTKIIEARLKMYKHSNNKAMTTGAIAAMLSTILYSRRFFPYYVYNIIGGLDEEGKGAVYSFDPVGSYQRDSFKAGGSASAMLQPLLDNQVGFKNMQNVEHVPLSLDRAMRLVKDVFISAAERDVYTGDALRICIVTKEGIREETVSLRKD
Protocol: Cellular Assay for Chymotrypsin-like activity of Proteasome in Molt-4 Cell Line
The chymotrypsin-like activity of proteasome in Molt-4 cells (human leukemia) was assayed according to the following procedure. A brief description of the method was published previously (Harding et al., J. Immunol., 1995, 155, 1767).
Molt-4 cells were washed and resuspended in HEPES-buffered Saline (5.4 mM KCl, 120 mM NaCl, 25 mM Glucose, 1.5 mM MgSO4, 1 mM Na pyruvate, 20 mM Hepes) and plated in 96-well microtiter white plates to a final concentration of 6×10^6 cells/mL. Then various 5× proteasome inhibitor concentrations (or diluted DMSO for controls), prepared from 250×DMSO solutions by diluting 50-fold using HEPES-buffered saline, were added to the plate to a final 1× concentration. After 15 minutes incubation at 37° C., a fluorimetric cell permeable substrate (MeOSuc-FLF-AFC) (methoxysuccinyl-Phe-Leu-Phe-7-amido-4-trifluoromethylcoumarin) purchased from Enzyme Systems Products, catalogue number AFC-88, was added to each well at a final concentration of 25 μM from a stock solution of 20 mM in DMSO. Reaction volumes were 100 μl per well.
The concentration of free AFC was monitored every 1.5 min for 30 min ([…]) on a Polastar Optima, BMG Labtechnologies microplate reader, using an excitation wavelength of 390 nm and emission wavelength of 520 nm. Proteasome activity was determined under conditions in which substrate hydrolysis increased linearly with time and the change in fluorescent signal was proportional to the concentration of free AFC.
Determination of EC50 Values for Proteasome Inhibitors in MOLT-4 Cell Line
as §1, with “of” for “of the”, “proteasome in Molt-4 cells” for “HEP and of bovine α-chymotrypsin”, “cells” for “the enzyme”, “C.” for “C. (or room temperature for α-chymotrypsin)”

Row | IC50 [1] | EC50 [2] | Compound
1 | < 10 nM | < 200 nM | CCCCCCCCCCCNC(=O)N[C@@H](CCCNC(=N)N[N+](=O)[O-])C(=O)N[C@@H](CC(C)C)B1O[C@@H]2C[C@@H]3C[C@@H](C3(C)C)[C@]2(C)O1 [D.6.5, N-[(1S)-1-[[[(1R)-1-[(3aS,4S,6S,7aR)-hexahydro-3a,5,5-trimethyl-4,6-methano-1,3,2-benzodioxaborol-2-yl]-3-methylbutyl]amino]carbonyl]-4-[[imino(nitroamino)methyl]amino]butyl]-N′-undecylurea]
2 | < 10 nM | < 200 nM | CC(C)C[C@H](NC(=O)[C@H](CCCNC(=N)N[N+](=O)[O-])NC(=O)CCc1cccs1)B1O[C@@H]2C[C@@H]3C[C@@H](C3(C)C)[C@]2(C)O1 [D.3.39, 3-Thiophen-2-yl-propanamide,N-[(1S)-1-[[[(1R)-1-[(3aS,4S,6S,7aR)-hexahydro-3a,5,5-trimethyl-4,6-methano-1,3,2-benzodioxaborol-2-yl]-3-methylbutyl]amino]carbonyl]-4-[[imino(nitroamino)methyl]amino]butyl]]
3 | < 10 nM | > 10000 nM | CC(C)C[C@H](NC(=O)[C@H](CCCNC(=N)N[N+](=O)[O-])NC(=O)C(C)c1ccccc1)B(O)O (mixture of isomers) [D.7.4, Boronic acid, [(1R)-1-[[(2S)-5-[[imino(nitroamino)methyl]amino]-2[((2RS)-2-phenylpropanoyl)amino]-1-oxopentyl]amino]-3-methylbutyl]]
4 | < 10 nM | 200 to 2000 nM | CC(C)C[C@H](NC(=O)[C@H](CCCNC(=N)N[N+](=O)[O-])NC(=O)c1ccc2ccccc2c1)B(O)O [E.1.4, Boronic acid, [(1R)-1-[[(2S)-5-[[imino(nitroamino)methyl]amino]-2-[(2-naphthoyl)amino]-1-oxopentyl]amino]-3-methylbutyl]]
5 | < 10 nM | 200 to 2000 nM | CC(C)C[C@H](NC(=O)[C@H](CCCNC(=N)N[N+](=O)[O-])NC(=O)CCCCCCCCCO)B1O[C@@H]2C[C@@H]3C[C@@H](C3(C)C)[C@]2(C)O1 [D.3.133, 10-Hydroxydecanamide,N-[(1S)-1-[[[(1R)-1-[(3aS,4S,6S,7aR)-hexahydro-3a,5,5-trimethyl-4,6-methano-1,3,2-benzodioxaborol-2-yl]-3-methylbutyl]amino]carbonyl]-4-[[imino(nitroamino)methyl]amino]butyl]]
6 | < 10 nM | < 200 nM | CCCOc1ccc(C(=O)N[C@H](C(=O)N[C@@H](CC(C)C)B(O)O)[C@@H](C)O)cc1 [E.3.8]
7 | < 10 nM | < 200 nM | CCCCCCCCCCCCC(=O)N[C@@H](CCCNC(=N)N[N+](=O)[O-])C(=O)N[C@@H](CC(C)C)B(O)O [E.2.45, Boronic acid, [(1R)-1-[[(2S)-5-[[imino(nitroamino)methyl]amino]-2-[(tridecanoyl)amino]-1-oxopentyl]amino]-3-methylbutyl]]
8 | < 10 nM | < 200 nM | CCCCCCCCCC(=O)NCC(=O)N[C@@H](CC(C)C)B1O[C@@H]2C[C@@H]3C[C@@H](C3(C)C)[C@]2(C)O1 [D.2.7, Decanamide,N-[1-[[[(1R)-1-[(3aS,4S,6S,7aR)-hexahydro-3a,5,5-trimethyl-4,6-methano-1,3,2-benzodioxaborol-2-yl]-3-methylbutyl]amino]carbonyl]methyl]]
9 | < 10 nM | < 200 nM | CC(C)C[C@H](NC(=O)[C@H](CCCNC(=N)N[N+](=O)[O-])NC(=O)c1ccc2ccccc2c1)B1O[C@@H]2C[C@@H]3C[C@@H](C3(C)C)[C@]2(C)O1 [D.1.1, Naphthalen-2-carboxamide,N-[(1S)-1-[[[(1R)-1-[(3aS,4S,6S,7aR)-hexahydro-3a,5,5-trimethyl-4,6-methano-1,3,2-benzodioxaborol-2-yl]-3-methylbutyl]amino]carbonyl]-4-[[imino(nitroamino)methyl]amino]butyl]]
10 | < 10 nM | < 200 nM | CC(C)C[C@H](NC(=O)[C@H](CCCNC(=N)N[N+](=O)[O-])NC(=O)c1ccc(-n2cccc2)cc1)B1O[C@@H]2C[C@@H]3C[C@@H](C3(C)C)[C@]2(C)O1 [D.3.64, 4-Pyrrol-1-yl-benzamide,N-[(1S)-1-[[[(1R)-1-[(3aS,4S,6S,7aR)-hexahydro-3a,5,5-trimethyl-4,6-methano-1,3,2-benzodioxaborol-2-yl]-3-methylbutyl]amino]carbonyl]-4-[[imino(nitroamino)methyl]amino]butyl]]
11 | < 10 nM | 2000 to 10000 nM | CCc1ccc(CCC(=O)N[C@@H](CCCNC(=N)N[N+](=O)[O-])C(=O)N[C@@H](CC(C)C)B(O)O)cc1 [E.2.78, Boronic acid, [(1R)-1-[[(2S)-5-[[imino(nitroamino)methyl]amino]-2-[[3-(4-ethylphenyl)propanoyl]amino]-1-oxopentyl]amino]-3-methylbutyl]]
12 | < 10 nM | 2000 to 10000 nM | CC(C)C[C@H](NC(=O)[C@H](CCCNC(=N)N[N+](=O)[O-])NC(=O)CCCCCCC(=O)c1ccccc1)B(O)O [E.2.57, Boronic acid, [(1R)-1-[[(2S)-5-[[imino(nitroamino)methyl]amino]-2-[(8-oxo-8-phenyloctanoyl)amino]-1-oxopentyl]amino]-3-methylbutyl]]
13 | < 100 nM | 200 to 2000 nM | Cc1ccc(S(=O)(=O)CC(=O)N[C@@H](CCCNC(=N)N[N+](=O)[O-])C(=O)N[C@@H](CC(C)C)B2O[C@@H]3C[C@@H]4C[C@@H](C4(C)C)[C@]3(C)O2)cc1 [D.3.182]
14 | < 100 nM | < 200 nM | CC(C)C[C@H](NC(=O)[C@@H](NS(=O)(=O)c1ccc2ccccc2c1)[C@@H](C)O)B(O)O [E.3.4, Boronic acid, [(1R)-1-[[(2S,3R)-3-hydroxy-2-[(naphthalene-2-sulfonyl)amino]-1-oxobutyl]amino]-3-methylbutyl]]
15 | < 10 nM | < 200 nM | CC(C)=CCC[C@@H](C)CC(=O)N[C@@H](CCCNC(=N)N[N+](=O)[O-])C(=O)N[C@@H](CC(C)C)B1O[C@@H]2C[C@@H]3C[C@@H](C3(C)C)[C@]2(C)O1 [D.3.75, (3R)-3,7-Dimethyl-oct-6-enoic acid amide,N-[(1S)-1-[[[(1R)-1-[(3aS,4S,6S,7aR)-hexahydro-3a,5,5-trimethyl-4,6-methano-1,3,2-benzodioxaborol-2-yl]-3-methylbutyl]amino]carbonyl]-4-[[imino(nitroamino)methyl]amino]butyl]]
16 | < 100 nM | < 200 nM | COCCOCCOCC(=O)NCC(=O)N[C@@H](CC(C)C)B1O[C@@H]2C[C@@H]3C[C@@H](C3(C)C)[C@]2(C)O1 [D.2.8, 2-[2-(2-methoxyethoxy)ethoxy]acetamide,N-[1-[[[(1R)-1-[(3aS,4S,6S,7aR)-hexahydro-3a,5,5-trimethyl-4,6-methano-1,3,2-benzodioxaborol-2-yl]-3-methylbutyl]amino]carbonyl]methyl]]
17 | < 10 nM | < 200 nM | CCCCCC(=O)NC[C@H](NC(=O)c1ccc(CCCC)cc1)C(=O)N[C@@H](CC(C)C)B1O[C@@H]2C[C@@H]3C[C@@H](C3(C)C)[C@]2(C)O1 [D.24.10, 4-butylbenzamide, N-[(1S)-1-[[[(1R)-1-[(3aS,4S,6S,7aR)-hexahydro-3a,5,5-trimethyl-4,6-methano-1,3,2-benzodioxaborol-2-yl]-3-methylbutyl]amino]carbonyl]-2-(hexanonylamino)ethyl]-]
